Results reported in patent US6960594B2, “Thiophene and furan 2,5-dicarboxamides useful in the treatment of cancer” (Shire BioChem Inc., priority 1998, dated 2005).
Structures can show the parent of a compound that is named as a salt. Where two headings read alike, the source gives them in different places. Blank lines part the entries; values can stand above or below the molecule they belong to.

Legend:
GP IIb-IIIa (αIIbβ3) = molecular target: T1, GP IIb-IIIa (αIIbβ3) (Homo sapiens, UniProt P05106+P08514); experiment: Fibrinogen binding to immobilized GP IIb-IIIa (αIIbβ3)
T1 construct: purchased Calbiochem
Procedure: (§1) The wells of plastic microtiter plates were coated overnight at 4° C. with purified active αIIbβ3 (Calbiochem) or placental αvβ3 at 0.5 ug/mL (100 uL/well) in a buffer containing 150 mM NaCl, 20 mM Tris, pH 7.4, 1 mM MgCl2, 0.2 mM MnCl2, and including 1 mM CaCl2 for αIIbβ3. Blocking of nonspecific sites was achieved by incubating the wells with 35 mg/mL bovine serum albumin (BSA) for at least 2 hours at 37° C. Biotinylated-fibrinogen (10 nM) was added in 0.2 mL binding buffer (100 mM NaCl, 50 mM Tris, pH 7.4, 1 mM MgCl2, 0.2 mM MnCl2 and 1 mg/mL BSA including 1 mM CaCl2 for αIIbβ3) to the wells in triplicate in the absence or presence of increasing concentrations of compounds of interest (0.001-100 uM) and further incubated for 2 hours at 37° C. Nonbound fibrinogen was removed by five washes with binding buffer. Avidin conjugated to alkaline phosphatase (Sigma), diluted in binding buffer, was added and incubated for two hours at 37° C. The plates were washed five times with binding buffer, and after addition of the substrate PNPP (Pierce), the enzyme activity was measured by the absorbance at 405 nm.

[1] = tested on: Chick chorioallantoic membrane (CAM) capillary formation driven by VPF/VEGF165; experiment: Chick chorioallantoic membrane (CAM) mesh assay; format: in vivo, chicken; conditions: significant if >25%
Procedure: Fertilized white leghorn chicken eggs (SPAFAS Inc., Norwich, Conn.) were received at day 0 and incubated for 3 days at 37 C with constant humidity. On day 3, eggs were rinsed with 70% ethanol and opened into 100 mm^2 tissue culture coated Petri dishes under aseptic conditions. The embryos were then returned to a humidified 38 C incubator for 7-9 additional days.
Vitrogen (Collagen Biomaterials, Palo Alto, Calif.) at a final concentration of 0.73 mg/mL and Matrigel (Becton Dickinson, Bedford, Mass.) at a final concentration of 10 mg/mL was directly pipetted onto Nylon meshes with 250 μm^2 openings which were cut into 4 mm×4 mm squares and autoclaved. Polymerization of meshes were under aseptic conditions, on bacteriological Petri dishes. The polymerization conditions for each substrate were identical; after mixing with or without 250 μg of VPF/VEGF165 (Peprotech, Rocky Hill, N.J.) and/or compounds of interest, 40 μL were pipetted onto each mesh in a bacteriological Petri dish. The Petri dish was placed in a humidified 37 C incubator with 5% CO2 for 30 minutes to allow polymerization followed by an incubation at 4° C. for 2 hours.
In a tissue culture enclosure, meshes were placed onto the periphery of the CAM of a day 12-14 embryo, excluding areas containing major vessels. The embryos were then returned to the humidified 38° C. incubator with 3% CO2 for 24 to 48 additional hours.
Embryos were removed from the incubator and meshes were viewed under a dissecting microscope for gross evaluation. Injection of 400 μL FITC dextran, MW 2,000,000 (Sigma, St. Louis, Mo.) through glass microcapillary tubes by infusion into the umbilical vein was performed at a rate of 200 μl per minute. The FITC dextran was allowed to circulate for 5 minutes and 3.7% formaldehyde in PBS was applied directly on each mesh. The embryos were then incubated at 40° C. for 5 minutes and the meshes were dissected off the CAM and fixed in 3.7% formaldehyde for 10 minutes to overnight.
After fixation, meshes were mounted on slides with 90% glycerol in PBS and visualized on an inverted fluorescence microscope. A Nikon Diaphot with a Sony DXC-151A camera attached to the side port was used for capture of images and analysis was with the NIH Image 1.61 software program. For each mesh, 5 random staggered images (approximately 600 μm each) were captured. The areas of high intensity were highlighted and measured. Results are expressed as ability to suppress capillary formation after subtraction from negative control. Values were calculated as a inhibition, considering 100% the capillary density achieved by VPF in the presence of vitrogen alone minus the bakground levels in the absence of VPF. Negative values indicated angiogenic stimulation above the VPF positive control.

placental αvβ3 = molecular target: T2, placental αvβ3 (Homo sapiens, UniProt P05106+P06756); experiment: Fibrinogen binding to immobilized αvβ3
T2 construct: placental αvβ3 at 0.5 ug/mL; from tissue; host or cells: placenta
T2 sequence (P06756 31-889 limits assumed): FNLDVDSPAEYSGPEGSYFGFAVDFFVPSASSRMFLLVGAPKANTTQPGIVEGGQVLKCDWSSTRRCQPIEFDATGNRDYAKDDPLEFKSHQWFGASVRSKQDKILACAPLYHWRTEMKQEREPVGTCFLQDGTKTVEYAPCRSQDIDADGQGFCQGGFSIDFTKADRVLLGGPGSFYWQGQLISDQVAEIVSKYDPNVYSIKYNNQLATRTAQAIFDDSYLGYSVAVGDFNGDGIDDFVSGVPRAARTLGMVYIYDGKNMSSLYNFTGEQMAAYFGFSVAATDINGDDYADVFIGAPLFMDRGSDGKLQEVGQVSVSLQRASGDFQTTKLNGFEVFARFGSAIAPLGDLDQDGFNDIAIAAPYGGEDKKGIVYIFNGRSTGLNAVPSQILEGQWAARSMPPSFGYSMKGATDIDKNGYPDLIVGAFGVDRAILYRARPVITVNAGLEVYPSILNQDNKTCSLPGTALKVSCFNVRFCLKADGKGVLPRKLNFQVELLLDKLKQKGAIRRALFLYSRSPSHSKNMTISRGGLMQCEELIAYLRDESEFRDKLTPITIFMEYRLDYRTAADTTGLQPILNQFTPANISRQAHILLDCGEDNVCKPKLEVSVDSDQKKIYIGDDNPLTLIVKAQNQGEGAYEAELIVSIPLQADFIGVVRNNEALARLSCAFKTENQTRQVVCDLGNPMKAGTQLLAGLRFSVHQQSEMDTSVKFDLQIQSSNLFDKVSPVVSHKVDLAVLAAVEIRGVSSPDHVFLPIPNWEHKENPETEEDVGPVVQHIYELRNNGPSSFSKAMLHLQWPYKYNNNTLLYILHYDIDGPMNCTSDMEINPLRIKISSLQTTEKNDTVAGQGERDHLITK
T2 sequence (P06756 891-1048 partner limits assumed): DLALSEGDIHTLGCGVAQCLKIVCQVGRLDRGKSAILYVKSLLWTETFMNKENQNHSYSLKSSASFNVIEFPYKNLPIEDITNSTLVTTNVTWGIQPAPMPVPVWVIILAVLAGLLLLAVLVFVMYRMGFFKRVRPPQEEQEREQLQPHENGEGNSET
T2 sequence (P05106 27-788): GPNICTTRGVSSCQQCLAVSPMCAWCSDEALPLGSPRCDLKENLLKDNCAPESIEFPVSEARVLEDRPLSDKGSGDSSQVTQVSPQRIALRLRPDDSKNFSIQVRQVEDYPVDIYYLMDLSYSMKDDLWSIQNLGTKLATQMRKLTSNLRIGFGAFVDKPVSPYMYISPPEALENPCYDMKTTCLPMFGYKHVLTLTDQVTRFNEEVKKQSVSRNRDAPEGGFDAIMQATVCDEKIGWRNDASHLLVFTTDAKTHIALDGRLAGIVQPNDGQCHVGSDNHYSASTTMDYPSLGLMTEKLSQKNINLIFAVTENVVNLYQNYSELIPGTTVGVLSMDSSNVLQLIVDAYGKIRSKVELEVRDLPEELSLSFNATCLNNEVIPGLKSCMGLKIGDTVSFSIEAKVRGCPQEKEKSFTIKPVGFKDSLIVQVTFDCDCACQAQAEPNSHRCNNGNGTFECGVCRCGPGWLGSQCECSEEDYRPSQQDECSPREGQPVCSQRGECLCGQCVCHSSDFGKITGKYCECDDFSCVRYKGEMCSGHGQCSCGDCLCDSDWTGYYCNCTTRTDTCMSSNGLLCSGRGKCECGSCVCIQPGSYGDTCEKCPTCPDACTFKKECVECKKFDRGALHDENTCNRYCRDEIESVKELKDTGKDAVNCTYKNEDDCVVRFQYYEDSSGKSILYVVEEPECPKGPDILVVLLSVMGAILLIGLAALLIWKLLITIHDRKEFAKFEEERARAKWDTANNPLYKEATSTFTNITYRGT
Procedure: as §1

HT29 = experiment: Cell proliferation and cytotoxicity MTT assay, HT29; format: cell-based; conditions: Homo sapiens, HT-29, 72 hours culture
Procedure: (§2) The wells of microtiter plates were seeded with 2000 cells/well T24, 2500 cells/well HT29 or 5000 cells/well HMVEC (Cell Systems) in 100 uL, followed by an overnight culture for cell adhesion. The next day, the media is supplemented with 100 uL of 10-fold dilution of compound of interest starting at 10 uM. Following culture for 72 hours, 3-(4,5-dimethyl-2-thiazolyl)-2,5-diphenyltetrazolium bromide (MTT; Sigma) at 2 mg/mL was added to each well (50 uL/well) and further incubated for 4 hours at 37° C. The medium was flicked out and 200 uL of a 1:1 solution of ethanol:acetone followed by 25 uL of glycine buffer (0.1 M glycine, 0.1M NaCl, pH 10.5) is added and the color measured by the absorbance at 570 nm.

HMVEC = experiment: Cell proliferation and cytotoxicity MTT assay, HMVEC; format: cell-based; conditions: HMVEC, 72 hours culture
Procedure: as §2

α5β1 = molecular target: T3, α5β1 (Homo sapiens, UniProt P05556+P08648); experiment: Cell adhesion assay, K562 on fibronectin; format: cell-based; conditions: K562 cells, adhesion to fibronectin, 1 hour
T3 construct: Cells HT29, K562, or K562 transfected with αvβ3; endogenous in cells; host or cells: K562
T3 sequence (P08648 42-894 limits assumed): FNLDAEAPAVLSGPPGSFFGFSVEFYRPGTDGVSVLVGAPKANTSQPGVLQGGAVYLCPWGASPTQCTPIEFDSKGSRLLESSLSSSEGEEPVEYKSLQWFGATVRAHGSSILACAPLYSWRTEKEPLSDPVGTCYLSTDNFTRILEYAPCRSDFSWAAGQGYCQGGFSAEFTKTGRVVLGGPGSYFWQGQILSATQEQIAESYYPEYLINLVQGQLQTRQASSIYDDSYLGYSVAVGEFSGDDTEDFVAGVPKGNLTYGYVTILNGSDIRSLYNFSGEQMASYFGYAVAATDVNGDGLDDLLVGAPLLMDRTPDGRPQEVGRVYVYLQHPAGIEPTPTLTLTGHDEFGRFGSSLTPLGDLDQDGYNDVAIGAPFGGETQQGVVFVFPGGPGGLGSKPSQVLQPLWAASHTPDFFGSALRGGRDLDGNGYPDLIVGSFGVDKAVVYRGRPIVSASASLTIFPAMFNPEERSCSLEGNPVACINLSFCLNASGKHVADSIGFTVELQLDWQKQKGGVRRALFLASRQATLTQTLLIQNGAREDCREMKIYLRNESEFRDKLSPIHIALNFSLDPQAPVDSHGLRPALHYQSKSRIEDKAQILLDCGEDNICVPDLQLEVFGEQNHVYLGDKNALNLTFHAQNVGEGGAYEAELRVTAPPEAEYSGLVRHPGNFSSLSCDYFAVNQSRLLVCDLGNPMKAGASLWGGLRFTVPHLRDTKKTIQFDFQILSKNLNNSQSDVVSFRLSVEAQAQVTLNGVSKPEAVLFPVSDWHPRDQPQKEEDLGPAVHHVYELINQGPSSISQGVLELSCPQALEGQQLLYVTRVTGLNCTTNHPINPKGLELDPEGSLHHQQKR
T3 sequence (P08648 895-1049 partner limits assumed): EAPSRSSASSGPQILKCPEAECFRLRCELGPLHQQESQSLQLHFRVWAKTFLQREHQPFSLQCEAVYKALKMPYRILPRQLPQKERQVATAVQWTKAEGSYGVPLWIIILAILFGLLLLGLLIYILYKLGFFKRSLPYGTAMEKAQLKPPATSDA
T3 sequence (P05556 21-798): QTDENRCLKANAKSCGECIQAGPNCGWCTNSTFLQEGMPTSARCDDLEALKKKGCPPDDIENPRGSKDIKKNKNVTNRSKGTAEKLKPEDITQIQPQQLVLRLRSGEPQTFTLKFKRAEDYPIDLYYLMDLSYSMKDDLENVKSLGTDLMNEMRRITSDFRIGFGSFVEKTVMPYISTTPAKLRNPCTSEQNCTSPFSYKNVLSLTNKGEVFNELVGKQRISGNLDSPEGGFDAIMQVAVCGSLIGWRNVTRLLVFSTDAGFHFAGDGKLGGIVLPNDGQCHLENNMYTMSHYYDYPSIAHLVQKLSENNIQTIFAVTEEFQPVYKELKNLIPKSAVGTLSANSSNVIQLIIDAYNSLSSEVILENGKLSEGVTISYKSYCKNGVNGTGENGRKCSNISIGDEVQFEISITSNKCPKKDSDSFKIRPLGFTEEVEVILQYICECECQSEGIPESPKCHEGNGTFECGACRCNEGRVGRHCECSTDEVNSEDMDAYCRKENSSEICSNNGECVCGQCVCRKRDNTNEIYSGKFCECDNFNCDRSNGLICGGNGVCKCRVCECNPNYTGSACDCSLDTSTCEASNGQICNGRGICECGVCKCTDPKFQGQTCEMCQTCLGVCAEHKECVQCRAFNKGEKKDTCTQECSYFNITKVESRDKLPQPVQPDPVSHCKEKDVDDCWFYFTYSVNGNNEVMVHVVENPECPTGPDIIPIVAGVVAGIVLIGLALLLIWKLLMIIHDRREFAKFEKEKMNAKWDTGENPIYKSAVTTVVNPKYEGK
Procedure: (§3) The wells of 96-well plates (Immunolon) were coated, by incubation overnight at 4° C., with 5 ug/mL vitronectin, 2 ug/mL osteopontin, or fibronectin or 10 mg/mL BSA in PBS. The protein solution was flicked out and the wells were blocked with 10 mg/mL BSA (0.1 mL) for 1-2 hours at 37° C. Cells HT29, K562, or K562 transfected with αvβ3 (Blystone et al., 1994) were loaded with a fluorescent marker, 5-chloromethylfluorescein diacetate (Molecular Probes, Eugene, Oreg.) for 1 hour at 37° C., then incubated in fresh medium without the fluorescent marker for 1 hour. Cells were lifted with trypsin-EDTA and washed two times with Hank's balanced salt solution minus cations (Sigma) supplemented with 1 mM MgCl2 Cells (75,000 cells/well) were added to coated plates in triplicate and allowed to attach at 37° C. for 1 hour in the presence or absence of specific antibodies (5 ug/mL) or 10-fold dilutions of compounds of interest starting at 10 uM. Nonadherent cells were removed by gentle washing twice with PBS. The adherent cells were solubilized with 1% triton x-100 and detected using a fluorescence plate reader (DYNEX Technologies). The number of attached cells was calculated based upon standard curves for each cell line used in the experiment. Non-specific cell attachment (attachment to wells coated with BSA) was always less than 5%.

αvβ3 = molecular target: T4, αvβ3 (Homo sapiens, UniProt P05106+P06756); experiment: Cell adhesion assay, K562-tr on osteopontin; format: cell-based
T4 construct: expressed in transfected cells; host or cells: K562
T4 sequence (P06756 31-889 limits assumed): as the sequence (P06756 31-889 limits assumed) above
T4 sequence (P06756 891-1048 partner limits assumed): as the sequence (P06756 891-1048 partner limits assumed) above
T4 sequence (P05106 27-788): as the sequence (P05106 27-788) above
Procedure: as §3, with “Cells HT29, K562, or K562 transfected with αvβ3 (Blystone et al., 1994) were loaded with a fluorescent marker, 5-chloromethylfluorescein diacetate (Molecular Probes, Eugene, Oreg.) for 1 hour at 37° C., then incubated in fresh medium without the fluorescent marker for 1 hour.” left out, “experiment.” for “experiment. Non-specific cell attachment (attachment to wells coated with BSA) was always less than 5%.”

[2] = tested on: Human non small-cell lung cancer cell line H460; experiment: Inhibition of metastasis in angiomouse/metamouse human lung cancer model of H460; format: in vivo, athymic BALB/c nude mice; conditions: Group B, 10 mg/kg SC 3 times/week
Procedure: Male and female athymic BALB/c nude mice between 4 and 5 weeks of age were used. The animals were bred and maintained in an HEPA-filtered environment with cages, food and bedding sterilized by autoclaving. The breeding pairs were obtained from the Charles River Laboratories (Wilmington, Mass.). The animal diets were obtained from Harlan Teklab (Madison, Wis.). Ampicillin (Sigma, St Louis, Mo.) 5.0% (v/v) was added to the autoclaved drinking water.
Compound VII was tested and AGM-1470 (chloroacetyl-(3R,4S,5S,6R)-5-methoxy-4-[(2R,3R)-2-methyl-3-(3-methyl-2-butenyl)oxiranyl]-1-oxaspiro[2.5]oct-6-yl ester carbamic acid) was used as a positive control. [drawing 51] The compounds were dissolved using PEG400 with heating and sonicatin. The solutions were then diluted with saline to obtain the desired concentrations (30%/70%) and stored at −20° C.
Human non small-cell lung cancer cell line H460 with expression of green fluorescent protein was obtained from the National Cancer Institute. The cells were transfected with vectors carrying the green fluorescent protein (GFP) gene. The cell line was propagated by subcutaneous implantation in nude mice.
Test animals were transplanted by surgical orthotopic implantation (SOI) using fragments harvested from subcutaneaous tumor stock animals. The animals were anesthetized with isoflurane and the surgical area was sterilized using iodine solution and alcohol. A left thoracotomy was made along the 4th intercostal space using a pair of scissors. Two pieces of H460 tumor tissue of one cubic millimiter each were sutured to the left lung using an 8-0 nylon surgical suture. The thorax was closed using a sterile 6-0 silk suture. A sterile 3-cc syringe with a 25-gauge needle was used to remove the air and inflate the lung. All surgical and animal manipulations and procedures were conducted under HEPA-filtered laminar flow hoods.
Extra numbers of mice were transplanted to compensate for postsurgical losses. The orthotopically transplanted animals used were selected to establish groups of similar mean body weight. Groups for each of the cohort conditions wre randomly chosen. The cohort was grouped as follows. A total of 10 mice were used for each dosage regimen. Administration of test compounds and vehicle by subcutaneous injection was begun three days after the orthotopic implantation.
Two animals for each treatment group were sacrificed at day-14 after orthotopic implantation of H460. The remaining animals for each group were sacrificed at day-28 after implantation. The sacrificed animals were evaluated for primary and secondary tumors. Gross examination for distant metastasis was conducted at necropsy. Tissue samples of the primary tumor and those from relevant organs such as the lung, the liver and the lymph nodes wre processed through standards procedures of hematoxylin and eosin staining for subsequent microscopic examination.
The mediastinal lymph nodes, the liver and the lung in each animal were collected. The sampled tissues were sectioned and stained, then microscopically examined. The fisher-exact test was performed to compare distant metastasis to these organs in the treated and the controls. […]

αvβ5 = molecular target: T5, αvβ5 (Homo sapiens, UniProt P06756+P18084); experiment: Cell adhesion assay, HT29 on vitronectin; format: cell-based
T5 construct: Cells HT29, K562, or K562 transfected with αvβ3; endogenous in cells; host or cells: HT29
T5 sequence (P06756 31-889 limits assumed): as the sequence (P06756 31-889 limits assumed) above
T5 sequence (P06756 891-1048 partner limits assumed): as the sequence (P06756 891-1048 partner limits assumed) above
T5 sequence (P18084 24-799): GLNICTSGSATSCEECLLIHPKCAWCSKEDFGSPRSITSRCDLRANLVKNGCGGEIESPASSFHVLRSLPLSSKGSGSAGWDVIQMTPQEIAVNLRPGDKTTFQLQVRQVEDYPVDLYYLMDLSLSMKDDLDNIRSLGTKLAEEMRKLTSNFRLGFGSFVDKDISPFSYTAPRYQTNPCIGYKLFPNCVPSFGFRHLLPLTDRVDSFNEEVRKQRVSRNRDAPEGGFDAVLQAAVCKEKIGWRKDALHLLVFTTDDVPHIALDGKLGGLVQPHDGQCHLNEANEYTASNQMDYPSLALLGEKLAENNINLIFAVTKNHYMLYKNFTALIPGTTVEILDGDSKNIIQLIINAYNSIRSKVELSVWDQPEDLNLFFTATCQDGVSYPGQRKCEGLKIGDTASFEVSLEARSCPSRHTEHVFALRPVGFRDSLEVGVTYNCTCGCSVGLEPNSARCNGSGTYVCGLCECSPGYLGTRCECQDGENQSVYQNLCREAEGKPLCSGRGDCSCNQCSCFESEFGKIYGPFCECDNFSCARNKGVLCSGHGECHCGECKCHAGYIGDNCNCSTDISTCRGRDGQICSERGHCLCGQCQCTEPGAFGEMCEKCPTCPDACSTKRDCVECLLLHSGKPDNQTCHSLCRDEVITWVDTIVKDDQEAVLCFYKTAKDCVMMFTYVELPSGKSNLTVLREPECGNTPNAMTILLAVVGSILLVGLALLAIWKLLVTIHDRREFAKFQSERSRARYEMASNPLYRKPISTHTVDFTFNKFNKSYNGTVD
Procedure: as §3, with “Cells HT29, K562, or K562 transfected with αvβ3 (Blystone et al., 1994) were loaded with a fluorescent marker, 5-chloromethylfluorescein diacetate (Molecular Probes, Eugene, Oreg.) for 1 hour at 37° C., then incubated in fresh medium without the fluorescent marker for 1 hour.” left out, “experiment.” for “experiment. Non-specific cell attachment (attachment to wells coated with BSA) was always less than 5%.”

[3] = K562 transfected with αvβ3, adhesion to osteopontin, 1 hour, read-out: IC50 K562-tr Osteopontin (αvβ3)

IC50 (GP IIb-IIIa (αIIbβ3); biotinylated-fibrinogen (10 nM) binding to immobilized αIIbβ3, read-out: IC50 αIIbβ3): 5.9 µM
IC50 (placental αvβ3; biotinylated-fibrinogen (10 nM) binding to immobilized αvβ3, read-out: IC50 αvβ3): 3200 nM
Structure (SMILES): N=C(N)NCCCNC(=O)c1ccc(C(=O)NC(CC(=O)O)c2ccccc2)s1 (stereo not shown) [Compound VIII, 3-{[5-(3-guanidino-propylcarbamoyl)-thiophene-2-carbonyl]-amino}-3-phenyl-propionic acid]
% of inhibition at 33 μg/mesh in the presence of VEGF [1]: 36%
IC50 (HT29): > 10 µM
IC50 (HMVEC): > 10 µM

Structure (SMILES): N=C(N)NNC(=O)c1ccc(C(=O)NC[C@H](NS(=O)(=O)c2ccccc2)C(=O)O)s1.O=C(O)C(F)(F)F [Compound XIX, 2S-Benzenesulfonylamino-3-[(5-guanidino-aminocarbonyl-thiophene-2-carbonyl)-amino]-3-propionic acid trifluoroacetate]
% of inhibition at 33 μg/mesh in the presence of VEGF [1]: 8%
IC50 (α5β1): > 10 µM
IC50 (αvβ3; [3]): 1300 nM

Structure (SMILES): Cl.N=C(N)NCCNC(=O)c1ccc(C(=O)NC[C@H](NS(=O)(=O)c2ccccc2)C(=O)O)o1 [Compound XXI]
% of inhibition at 33 μg/mesh in the presence of VEGF [1]: 32%

Structure (SMILES): CO[C@@H]1[C@H](OC(=O)NC(=O)CCl)CC[C@]2(CO2)[C@H]1[C@@]1(C)O[C@@H]1CC=C(C)C [AGM-1470, chloroacetyl-(3R,4S,5S,6R)-5-methoxy-4-[(2R,3R)-2-methyl-3-(3-methyl-2-butenyl)oxiranyl]-1-oxaspiro[2.5]oct-6-yl ester carbamic acid, reference compound]
Incidence of lung metastasis [2]: 3/10
Incidence of lymph node metastasis [2]: 1/10

Structure (SMILES): NCCNC(=O)c1ccc(C(=O)NC[C@H](NS(=O)(=O)c2ccccc2)C(=O)O)s1 [Compound X, (2S)2-Benzenesulfonylamino-3-[5-(2-amino-ethylcarbamoyl)-thiophen-2-carbonyl]-amino propionic acid trifluoroacetic acid salt]
IC50 (αvβ5; HT29 cells, adhesion to vitronectin, 1 hour, read-out: IC50 HT29 Vitronectin (αvβ5)): > 10 µM
IC50 (α5β1): > 10 µM
IC50 (αvβ3; [3]): > 10000 nM

IC50 (GP IIb-IIIa (αIIbβ3)): 0.931 µM
IC50 (placental αvβ3): 45 nM
IC50 (αvβ5): 5.4 µM
IC50 (α5β1): > 10 µM
IC50 (αvβ3): 2300 nM
Structure (SMILES): Cl.N=C(N)NCCNC(=O)c1ccc(C(=O)NC[C@H](NS(=O)(=O)c2ccccc2)C(=O)O)o1 [Compound XXI, hydrochloride]
IC50 (HT29): > 10 µM
IC50 (HMVEC): 8.9 µM

Structure (SMILES): NNC(=O)c1ccc(C(=O)NC[C@H](NS(=O)(=O)c2ccccc2)C(=O)O)s1.O=C(O)C(F)(F)F [Compound XVIII, 2S-Benzenesulfonylamino-3-[(5-hydrazinocarbonyl-thiophene-2-carbonyl)-amino]-3-propionic acid trifluoroacetate]
% of inhibition at 33 μg/mesh in the presence of VEGF [1]: 20%
